Test [1] concerns genotype A, "Long" strain RSV. As to the kind of experiment: RSV-A assay (CPE protection in Hep-2 cells, ATPlite readout). It counts as cell-based, Human respiratory syncytial virus (HRSV). The following applies: human respiratory syncytial virus, MOI 0.1, CPE protection. Put shortly:
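Hep-2, 8,000 cells/well, MOI 0.1 (PFU- or TCID50-based); 2-fold compound series, duplicates; 5 d incubation; ATPlite luminescence readout; EC50.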

Test [2] has as its system recombinant HMPV CAN97-83 containing eGFP (MPV-GFP1). As to the kind of experiment: HMPV antiviral assay Method-A (MPV-GFP1 eGFP fluorescence in Vero E6 cells). The following applies: human metapneumovirus, Vero C1008, 120 h, read-out: HMPV EC50. It counts as cell-based, Human metapneumovirus (HMPV). Here is the method: HMPV antiviral activity was evaluated using a recombinant version of HMPV CAN97-83 engineered to contain the coding sequence for enhanced green fluorescence protein (eGFP) in the 3′ end of the virus genome (MPV-GFP1, ViraTree). Vero E6 cells ([…]) were seeded at a density of 12,000 cells/100 μL/well into 96-well cell plates one day prior to the assay. On the day of screening, the cell culture medium was aspirated from the wells and cells were washed twice with serum-free Eagle's Modified Essential Medium (EMEM, ATCC #) containing 1% penicillin-streptomycin (Invitrogen) (SF-EMEM). Cell washes were performed by dispensing 100 μL SF-EMEM per well and immediately aspirating the wash medium from the well. Following the second wash step, serum-free OptiMEM (Invitrogen, Cat No.) (SF-OptiMEM) containing 0.5 μg/mL TPCK-Trypsin (VENDOR) and 1% penicillin-streptomycin was added to the cells at 50 μL/well. Compounds were added into the 96-well plates using a JANUS automated liquid handling system (VENDOR). Compounds were initially diluted 1:50 into an intermediate 96-well plate containing SF-OptiMEM prior to transfer to the assay plate (25 μL/well). Each of the test compounds were tested in duplicate wells at final concentrations starting from 8 μM or 2 μM using ½ stepwise dilutions for a total of 8 points. Virus infection was performed by preparing a working stock of MPV-GFP1 at a multiplicity of infection (MOI) equal to 0.05/25 μL and aliquoting 25 μL of virus inoculum to the compound and positive control wells. SF-OptiMEM was added (25 μL/well) to the appropriate wells to serve as a virus-free negative control for the assay. The final DMSO concentration of all wells is 0.5%. Plates were incubated at 32° C., 5% CO2 for 5 days.
After 5 days incubation, eGFP fluorescence intensity was measured at (X) […] wavelength using a Spectramax i3× plate reader (VENDOR). Percent viral inhibition was calculated using the following equation: y=[…]
Where XQ is the fluorescence intensity measured in a well containing recombinant MPV-GFP1-infected, compound-treated cells and XP is the average fluorescence intensity measured in the wells containing untreated cells infected with recombinant virus. EC50 values were then calculated by non-linear regression using a four parameter curve logistic equation. The curve fit model employed was XLFit Dose Response One Site Model 200: y=(A+(B/(1+((x/C)^D))))
Where A is the minimum y value, B is the maximum y value, C is the log EC50 value, and D is the slope factor. […] EC50 ranges are as follows: A<0.5 μM; B>0.5 μM.

Test [3] relates to HMPV clinical isolate TN/1501/A1. As to the kind of experiment: HMPV antiviral assay Method-B (clinical isolate TN/1501/A1 in LLC-MK2 cells, ATP-Lite readout). The format is cell-based, Human metapneumovirus (HMPV). The following applies: human metapneumovirus, LLC-MK2, 144 h, hMPV WT1501 (clinical isolate TN/1501/A1), 6 days. In a few lines:
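EC50 derived by four-parameter logistic fit of percent cell health, measured by ATP-Lite luminescence and normalised to virus-only and uninfected-cell controls. Compounds run in duplicate from 10 μM top, 3-fold, 10 points. Infection: LLC-MK2 cells, MOI 0.014, 2 μg/mL final TPCK-trypsin, serum-free, 6 days at 37° C.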

[4] abbreviates: genotype A “Long” strain RSV, read-out: Human RSV-A (“Long”).
Setting [5] is: RSV-A Long strain, read-out: Human RSV-A (“Long”) EC50.

Molecules are shown by their SMILES. Read-outs that look alike come from different tables or passages of the source.

`Cc1cc2cc(C(=O)NC[C@](O)(c3cc4c(c(-c5ccc(F)cc5)n3)OC[C@]4(C)C(N)=O)C(F)(F)F)cc(OC3CC3)c2nc1C` [Example 178]: the EC50 is < 200 nM in test [1] (setting [4]) and > 500 nM in test [2].
Consider `CCc1nc2c(OC)cc(C(=O)NC[C@](O)(c3cc4c(c(-c5ccc(F)c(Cl)c5)n3)OC[C@]4(C)C(N)=O)C(F)(F)F)cc2s1` [Example 20], for which the EC50 in test [1] (setting [4]) was < 200 nM; in test [2] it was < 500 nM.
Consider `C[C@]1(C(N)=O)COc2c1cc([C@@](O)(CNC(=O)c1cc(Cl)c3nc(N)sc3c1)C(F)(F)F)nc2-c1ccc(F)c(Cl)c1` [Example 13], for which the figures for the EC50 in test [1] (setting [4]) and in test [2] were < 200 nM and < 500 nM, respectively.
Taken in the same sequence, the figures for `COc1cc(C(=O)NC[C@](O)(c2cc3c(c(-c4ccc(F)c(Cl)c4)n2)OC[C@]3(C)C(N)=O)C(F)(F)F)cc2cc(C3CC3)nn12` [Example 32] were < 200 nM and < 500 nM.
Taken in the same sequence, the figures for `C[C@]1(C(N)=O)COc2c1cc([C@@](O)(CNC(=O)c1ccc3nn(C(F)F)cc3c1)C(F)(F)F)nc2-c1ccc(F)cc1` [Example 41] were < 200 nM and < 500 nM.
In the case of `C[C@]1(C(N)=O)COc2c1cc([C@@](O)(CNC(=O)c1cc(F)c3nn(C4CC4)cc3c1)C(F)(F)F)nc2-c1ccc(F)cc1` [Example 25], the EC50 in test [1] (setting [4]) was < 200 nM; in test [2] it was < 500 nM.
In the case of `COC(=O)Nc1cc(C(=O)NC[C@](O)(c2cc3c(c(-c4ccc(F)cc4)n2)OC[C@]3(C)C(N)=O)C(F)(F)F)cc2cc(C)cnc12` [Example 210], the EC50 was < 200 nM in test [1] (setting [4]) and < 500 nM in test [2].
As to `C[C@@H](N)C(=O)Nc1nc2ccc(C(=O)NC[C@](O)(c3cc4c(c(-c5ccc(F)cc5)n3)OC[C@]4(C)C(N)=O)C(F)(F)F)cc2s1` [Example 154], the EC50 in test [1] (setting [4]) was < 200 nM; in test [2], > 500 nM.
Taken in the same sequence, the figures for `NC(=O)[C@@]1(C2CC2)COc2c1cc([C@@](O)(CNC(=O)c1cc(F)c3nc(N)sc3c1)C(F)(F)F)nc2-c1ccc(F)cc1` [Example 263] were < 200 nM and < 500 nM.
Taken in the same sequence, the figures for `COc1cc(C(=O)NC[C@](O)(c2cc3c(c(-c4ccc(Cl)c(F)c4)n2)OC[C@]3(C)C(N)=O)C(F)(F)F)cc2cn(C(F)F)nc12` [Example 300] were < 200 nM and < 500 nM.
Taken in the same sequence, the figures for `C[C@]1(C(N)=O)COc2c1cc([C@@](O)(CNC(=O)c1ccc3c(c1)CN(C1CC1)C3=O)C(F)(F)F)nc2-c1ccc(F)cc1` [Example 34] were < 200 nM and > 500 nM.
`COc1cc(C(=O)NC[C@](O)(c2cc3c(c(-c4ccc(Cl)cc4)n2)OC[C@]3(C)C(N)=O)C(F)(F)F)cc2cc(C(F)(F)F)cnc12` [Example 314]: the values for the EC50 in test [1] (setting [4]) and in test [2] were < 200 nM and < 500 nM, respectively.
Regarding `C[C@]1(C(N)=O)COc2c1cc([C@@](O)(CNC(=O)c1ccc3nc(CO)sc3c1)C(F)(F)F)nc2-c1ccc(F)cc1` [Example 161], the EC50 is < 200 nM in test [1] (setting [4]) and > 500 nM in test [2].
Take `C[C@]1(C(N)=O)COc2c1cc([C@@](O)(CNC(=O)c1cc(F)c3nc(C4CC4)cn3c1)C(F)(F)F)nc2-c1ccc(F)c(Cl)c1` [Example 58]: the EC50 was < 200 nM in test [1] (setting [4]) and < 500 nM in test [2].
In the case of `C[C@]1(C(N)=O)COc2c1cc([C@@](O)(CNC(=O)c1ccc3nc(C4CC4)sc3c1)C(F)(F)F)nc2-c1ccc(F)cc1` [Example 14], the EC50 in test [1] (setting [4]) was < 200 nM; in test [2], < 500 nM.
Taken in the same sequence, the figures for `COc1cc(C(=O)NC[C@](O)(c2cc3c(c(-c4ccc(F)cc4)n2)OC[C@]3(C)C(N)=O)C(F)(F)F)ccc1OC[C@@H](C)O` [Example 138] were < 200 nM and > 500 nM.
As for `COc1cc(C(=O)NC[C@](O)(c2cc3c(c(-c4ccc(F)c(Cl)c4)n2)OC[C@]3(C)C(N)=O)C(F)(F)F)cc2cn(C3CCC3)nc12` [Example 324], the EC50 in test [1] (setting [4]) was < 200 nM; in test [2] it was < 500 nM.
Taken in the same sequence, the figures for `COc1cc(C(=O)NC[C@](O)(c2cc3c(c(-c4ccc(F)cc4)n2)OC[C@]3(C)C(N)=O)C(F)(F)F)cc2cc(C(F)F)c(C)nc12` [Example 148] were < 200 nM and < 500 nM.
In the case of `COc1cc(C(=O)NC[C@](O)(c2cc3c(c(-c4ccc(F)cc4)n2)OC[C@]3(C)C(N)=O)C(F)(F)F)cn2cc(C3CC3)nc12` [Example 217], the values for the EC50 in test [1] (setting [4]) and in test [2] were < 200 nM and < 500 nM, respectively.
Turning to `Cc1cc2cc(C(=O)NC[C@](O)(c3cc4c(c(-c5ccc(F)c(Cl)c5)n3)OC[C@]4(C)C(N)=O)C(F)(F)F)cc(OC(F)(F)F)c2nc1C` [Example 184], the results for the EC50 in test [1] (setting [4]) and in test [2] were < 200 nM and > 500 nM, respectively.
On to `Cc1nc2c(OC(F)(F)F)cc(C(=O)NC[C@](O)(c3cc4c(c(-c5ccc(F)cc5)n3)OC[C@]4(C)C(N)=O)C(F)(F)F)cc2s1` [Example 97], for which the EC50 was < 200 nM in test [1] (setting [4]) and > 500 nM in test [2].
Turning to `C[C@]1(C(N)=O)COc2c1cc([C@@](O)(CNC(=O)c1cc(F)c3nc(N)sc3c1)C(F)(F)F)nc2-c1ccc(Cl)c(Cl)c1` [Example 306], the figures for the EC50 in test [1] (setting [4]) and in test [2] were < 200 nM and < 500 nM, respectively.
Taken in the same sequence, the figures for `COc1cc(C(=O)NC[C@](O)(c2cc3c(c(-c4ccc(F)cc4)n2)OC[C@]3(C)C(N)=O)C(F)(F)F)cc2cc(C3CC3)nnc12` [Example 81] were < 200 nM and > 500 nM.
With `COc1cc(C(=O)NC[C@](O)(c2cc3c(c(-c4ccc(F)cc4)n2)OC[C@]3(C)C(N)=O)C(F)(F)F)cc2cc(CO)c(C)nc12` [Example 75], the EC50 in test [1] (setting [4]) is < 200 nM; in test [2] it was > 500 nM.
Taken in the same sequence, the figures for `Cc1cc2cc(C(=O)NC[C@](O)(c3cc4c(c(-c5ccc(F)cc5)n3)OC[C@]4(C)C(N)=O)C(F)(F)F)cc(Cl)c2nc1C` [Example 177] were < 200 nM and < 500 nM.
In the case of `COc1ccc(-c2nc([C@](O)(CNC(=O)c3cc(OC)c4nn(C5CC5)cc4c3)C(F)(F)F)cc3c2OC[C@]3(C)C(N)=O)cc1` [Example 923], the EC50 in test [1] (setting [5]) is > 200 nM; in test [3], > 500 nM.
Taken in the same sequence, the figures for `COc1cc(C(=O)NC[C@](O)(c2cc3c(c(-c4cc(F)c(F)cc4F)n2)OC[C@]3(C)C(N)=O)C2CC2)cc2cn(C(F)F)nc12` [Example 1146] were < 200 nM and < 500 nM.
On to `COc1cc(C(=O)NC[C@](O)(c2cc3c(c(-c4ccc5cn(C(F)F)nc5c4)n2)OC[C@]3(C)C(N)=O)C(F)(F)F)cc2cn(C3CC3)nc12` [Example 941], for which the EC50 in test [1] (setting [5]) was > 200 nM; in test [3] it was > 500 nM.
Turning to `COc1cc(C(=O)NC[C@](O)(c2cc3c(c(-c4cccc(OC(F)(F)F)c4)n2)OC[C@]3(C)C(N)=O)C(F)(F)F)cc2cn(C3CC3)nc12` [Example 978], the EC50 in test [1] (setting [5]) was < 200 nM; in test [3], > 500 nM.
Consider `COc1cc(C(=O)NC[C@](O)(c2cc3c(c(-c4cc(F)c(Cl)cc4F)n2)OC[C@]3(C)C(N)=O)C(F)(F)F)cc2cn(C3CC3)nc12` [Example 932], for which the EC50 is < 200 nM in test [1] (setting [5]) and < 500 nM in test [3].
On to `COc1ccc(C(=O)NC[C@](O)(c2cc3c(c(-c4ccc(F)cc4)n2)OC[C@]3(C)C(N)=O)C(F)(F)F)n2cc(C3CC3)nc12` [Example 695], for which the EC50 is < 200 nM in test [1] (setting [4]) and > 500 nM in test [3].
Turning to `Cc1cnc2c(OCC(F)F)cc(C(=O)NC[C@](O)(c3cc4c(c(-c5ccc6c(c5)OC(F)(F)O6)n3)OC[C@]4(C)C(N)=O)C3CC3)cc2c1` [Example 541], the EC50 in test [1] (setting [4]) is < 200 nM; in test [3], < 500 nM.

Source of the values: patent US12612412B2, “Antiviral heterocyclic compounds” (Enanta Pharmaceuticals, Inc., priority 2021, dated 2026).
